In US20260256728A1, “TREATMENT FOR ASYMPTOMATIC STARGARDT DISEASE PATIENTS” (priority 2024, published 2026):
“Also recorded” adds a separate entry of the source.

How the values were obtained:
[1] = TEASE-3 plasma gildeuretinol; assay type: in vivo, human; conditions: 14 mg daily
Description: (§1) The tolerability and effects of ALK-001 (gildeuretinol acetate) in Stargardt Disease (Clinical trial group 3, also known as TEASE-3) study was an open-label, multicenter, case control study designed to evaluate the efficacy and safety of gildeuretinol acetate on the progression of Stargardt disease in asymptomatic individuals. The trial was conducted at multiple sites in the United States.
To assess the safety and efficacy of gildeuretinol acetate in preventing vision loss in asymptomatic individuals, gildeuretinol acetate 14 mg capsules were administered to individuals showing early signs of retinal damage while maintaining approximately 20/20 vision and no subjective loss of vision. […] Based on the above family history and clinical observations, the asymptomatic individuals were likely to develop retinal lesions, loss of photoreceptors, drops in retinal sensitivity, loss of visual acuity, indicating the onset of symptoms, i.e. a progression to the symptomatic phase, including vision loss within two years, mirroring the progression observed in their older siblings.
Patients received gildeuretinol acetate 14 mg capsules, to be taken orally once daily. Trial visits occurred every 6 months approximately following screening and treatment start visits.

[2] = system: asymptomatic Stargardt disease patients; experiment: TEASE-3 fundus autofluorescence (FAF) imaging; assay type: in vivo, human; conditions: after two to four years of treatment, three patients
Description: as §1
To assess the safety and efficacy of gildeuretinol acetate in preventing vision loss in asymptomatic individuals, gildeuretinol acetate 14 mg capsules were administered to individuals showing early signs of retinal damage while maintaining approximately 20/20 vision and no subjective loss of vision. […]
Disease progression was monitored by best-corrected visual acuity (BCVA) reported in number of Early Treatment Diabetic Retinopathy Study (ETDRS) letters, fundus autofluorescence (FAF) imaging, loss of photoreceptors (as measured by the ellipsoid zone band loss) by optical coherence tomography (OCT) and retinal sensitivity by microperimetry.

[3] = TEASE-1 safety, adverse events

[2H]C([2H])([2H])C(/C=C/C=C(C)/C=C/C1=C(C)CCCC1(C)C)=C\COC(C)=O [gildeuretinol acetate]
replacement of plasma vitamin A sustained throughout the treatment period [1]: Over 80% | replacement of plasma vitamin A (retinol) with gildeuretinol ([1]; after the first two months, all three participants): 80% | disease progression / changes by FAF imaging [2]: none of the three treated Stargardt disease patients exhibited changes by FAF; also recorded: no observable disease progression; also recorded: no visible disease progression by fundus autofluorescence imaging occurred | Patients experiencing event (%): Death ([3]; 14 mg (N = 15)): 1 (6.7) | Patients experiencing event (%): Influenza ([3]; 14 mg (N = 15)): 0 | Patients experiencing event (%): Vulvovaginal candidiasis ([3]; 14 mg (N = 15)): 0 | Patients experiencing event (%): Wrist fracture ([3]; 14 mg (N = 15)): 0 | Patients experiencing event (%): Xanthelasma ([3]; 14 mg (N = 15)): 0 | Patients experiencing event (%): Death ([3]; 24 mg (N = 15)): 0 | Patients experiencing event (%): Influenza ([3]; 24 mg (N = 15)): 1 (6.7) | Patients experiencing event (%): Vulvovaginal candidiasis ([3]; 24 mg (N = 15)): 1 (6.7) | Patients experiencing event (%): Wrist fracture ([3]; 24 mg (N = 15)): 0 | Patients experiencing event (%): Xanthelasma ([3]; 24 mg (N = 15)): 1 (6.7) | Patients experiencing event (%): Abdominal discomfort ([3]; Crossover (N = 10)): 1 (10.0) | Patients experiencing event (%): Abdominal distension ([3]; Crossover (N = 10)): 0 | Patients experiencing event (%): Abdominal pain upper ([3]; Crossover (N = 10)): 0 | Patients experiencing event (%): Abnormal dreams ([3]; Crossover (N = 10)): 0 | Patients experiencing event (%): Alanine aminotransferase increased ([3]; Crossover (N = 10)): 1 (10.0) | Patients experiencing event (%): Alopecia ([3]; Crossover (N = 10)): 0 | Patients experiencing event (%): Ankle fracture ([3]; Crossover (N = 10)): 0 | Patients experiencing event (%): Arthralgia ([3]; Crossover (N = 10)): 1 (10.0) | Patients experiencing event (%): Arthritis ([3]; Crossover (N = 10)): 1 (10.0) | Patients experiencing event (%): Aspartate aminotransferase increased ([3]; Crossover (N = 10)): 1 (10.0) | Patients experiencing event (%): Back injury ([3]; Crossover (N = 10)): 0 | Patients experiencing event (%): Back pain ([3]; Crossover (N = 10)): 0 | Patients experiencing event (%): Blepharospasm ([3]; Crossover (N = 10)): 1 (10.0) | Patients experiencing event (%): Blood cholesterol increased ([3]; Crossover (N = 10)): 0 | Patients experiencing event (%): Blood creatinine increased ([3]; Crossover (N = 10)): 0 | Patients experiencing event (%): Blood iron decreased ([3]; Crossover (N = 10)): 0 | Patients experiencing event (%): Blood pressure increased ([3]; Crossover (N = 10)): 0 | Patients experiencing event (%): Blood triglycerides increased ([3]; Crossover (N = 10)): 0 | Patients experiencing event (%): Bowel movement irregularity ([3]; Crossover (N = 10)): 0 | Patients experiencing event (%): Bronchitis ([3]; Crossover (N = 10)): 0 | Patients experiencing event (%): Cartilage injury ([3]; Crossover (N = 10)): 0 | Patients experiencing event (%): Conjunctival laceration ([3]; Crossover (N = 10)): 0 | Patients experiencing event (%): Conjunctivitis ([3]; Crossover (N = 10)): 0 | Patients experiencing event (%): Constipation ([3]; Crossover (N = 10)): 0 | Patients experiencing event (%): Cough ([3]; Crossover (N = 10)): 0 | Patients experiencing event (%): Death ([3]; Crossover (N = 10)): 0 | Patients experiencing event (%): Depression ([3]; Crossover (N = 10)): 0 | Patients experiencing event (%): Diarrhoea ([3]; Crossover (N = 10)): 1 (10.0) | Patients experiencing event (%): Diplopia ([3]; Crossover (N = 10)): 0 | Patients experiencing event (%): Dry eye ([3]; Crossover (N = 10)): 0 | Patients experiencing event (%): Dry mouth ([3]; Crossover (N = 10)): 0 | Patients experiencing event (%): Dry skin ([3]; Crossover (N = 10)): 0 | Patients experiencing event (%): Ear discomfort ([3]; Crossover (N = 10)): 0 | Patients experiencing event (%): Ear pain ([3]; Crossover (N = 10)): 0 | Patients experiencing event (%): Eczema ([3]; Crossover (N = 10)): 1 (10.0) | Patients experiencing event (%): Electrocardiogram abnormal ([3]; Crossover (N = 10)): 1 (10.0) | Patients experiencing event (%): Erythema ([3]; Crossover (N = 10)): 0 | Patients experiencing event (%): Eye irritation ([3]; Crossover (N = 10)): 0 | Patients experiencing event (%): Eye pain ([3]; Crossover (N = 10)): 0 | Patients experiencing event (%): Eye pruritus ([3]; Crossover (N = 10)): 0 | Patients experiencing event (%): Face injury ([3]; Crossover (N = 10)): 0 | Patients experiencing event (%): Faeces soft ([3]; Crossover (N = 10)): 0 | Patients experiencing event (%): Fall ([3]; Crossover (N = 10)): 0 | Patients experiencing event (%): Gastroenteritis ([3]; Crossover (N = 10)): 1 (10.0) | Patients experiencing event (%): Hair texture abnormal ([3]; Crossover (N = 10)): 0 | Patients experiencing event (%): Hand fracture ([3]; Crossover (N = 10)): 0 | Patients experiencing event (%): Headache ([3]; Crossover (N = 10)): 0 | Patients experiencing event (%): Hordeolum ([3]; Crossover (N = 10)): 0 | Patients experiencing event (%): Hypertension ([3]; Crossover (N = 10)): 0 | Patients experiencing event (%): Hypobarism ([3]; Crossover (N = 10)): 0 | Patients experiencing event (%): Hypothyroidism ([3]; Crossover (N = 10)): 0 | Patients experiencing event (%): Hysterectomy ([3]; Crossover (N = 10)): 0 | Patients experiencing event (%): Inflammation ([3]; Crossover (N = 10)): 0 | Patients experiencing event (%): Influenza ([3]; Crossover (N = 10)): 0 | Patients experiencing event (%): Insomnia ([3]; Crossover (N = 10)): 0 | Patients experiencing event (%): Intracranial pressure increased ([3]; Crossover (N = 10)): 0 | Patients experiencing event (%): Irritability ([3]; Crossover (N = 10)): 0 | Patients experiencing event (%): Jaw operation ([3]; Crossover (N = 10)): 0 | Patients experiencing event (%): Knee arthroplasty ([3]; Crossover (N = 10)): 0 | Patients experiencing event (%): Laryngitis ([3]; Crossover (N = 10)): 0 | Patients experiencing event (%): Lip swelling ([3]; Crossover (N = 10)): 0 | Patients experiencing event (%): Low density lipoprotein increased ([3]; Crossover (N = 10)): 0 | Patients experiencing event (%): Muscle spasms ([3]; Crossover (N = 10)): 0 | Patients experiencing event (%): Muscle strain ([3]; Crossover (N = 10)): 0 | Patients experiencing event (%): Musculoskeletal pain ([3]; Crossover (N = 10)): 0 | Patients experiencing event (%): Nasopharyngitis ([3]; Crossover (N = 10)): 1 (10.0) | Patients experiencing event (%): Nausea ([3]; Crossover (N = 10)): 0 | Patients experiencing event (%): Neck pain ([3]; Crossover (N = 10)): 0 | Patients experiencing event (%): Nephrolithiasis ([3]; Crossover (N = 10)): 1 (10.0) | Patients experiencing event (%): Nerve compression ([3]; Crossover (N = 10)): 0 | Patients experiencing event (%): Neuralgia ([3]; Crossover (N = 10)): 0 | Patients experiencing event (%): Obsessive-compulsive disorder ([3]; Crossover (N = 10)): 0 | Patients experiencing event (%): Oropharyngeal pain ([3]; Crossover (N = 10)): 1 (10.0) | Patients experiencing event (%): Osteoporosis ([3]; Crossover (N = 10)): 0 | Patients experiencing event (%): Overall ([3]; Crossover (N = 10)): 8 (80) | Patients experiencing event (%): Pain ([3]; Crossover (N = 10)): 0 | Patients experiencing event (%): Pain in extremity ([3]; Crossover (N = 10)): 0 | Patients experiencing event (%): Pain in jaw ([3]; Crossover (N = 10)): 0 | Patients experiencing event (%): Peripheral coldness ([3]; Crossover (N = 10)): 0 | Patients experiencing event (%): Pharyngitis streptococcal ([3]; Crossover (N = 10)): 0 | Patients experiencing event (%): Photophobia ([3]; Crossover (N = 10)): 0 | Patients experiencing event (%): Photopsia ([3]; Crossover (N = 10)): 0 | Patients experiencing event (%): Plantar fasciitis ([3]; Crossover (N = 10)): 0 | Patients experiencing event (%): Pleurisy ([3]; Crossover (N = 10)): 1 (10.0) | Patients experiencing event (%): Pneumonia ([3]; Crossover (N = 10)): 1 (10.0) | Patients experiencing event (%): Premenstrual syndrome ([3]; Crossover (N = 10)): 0 | Patients experiencing event (%): Punctate keratitis ([3]; Crossover (N = 10)): 0 | Patients experiencing event (%): Pyrexia ([3]; Crossover (N = 10)): 0 | Patients experiencing event (%): Radius fracture ([3]; Crossover (N = 10)): 0 | Patients experiencing event (%): Rash ([3]; Crossover (N = 10)): 1 (10.0) | Patients experiencing event (%): Rotator cuff syndrome ([3]; Crossover (N = 10)): 0 | Patients experiencing event (%): Sialoadenitis ([3]; Crossover (N = 10)): 0 | Patients experiencing event (%): Sinus congestion ([3]; Crossover (N = 10)): 0 | Patients experiencing event (%): Sinusitis ([3]; Crossover (N = 10)): 0 | Patients experiencing event (%): Sjogren's syndrome ([3]; Crossover (N = 10)): 0 | Patients experiencing event (%): Subdural haematoma ([3]; Crossover (N = 10)): 0 | Patients experiencing event (%): Syncope ([3]; Crossover (N = 10)): 0 | Patients experiencing event (%): Tendonitis ([3]; Crossover (N = 10)): 0 | Patients experiencing event (%): Thoracic outlet syndrome ([3]; Crossover (N = 10)): 0 | Patients experiencing event (%): Tongue dry ([3]; Crossover (N = 10)): 0 | Patients experiencing event (%): Tooth abscess ([3]; Crossover (N = 10)): 0 | Patients experiencing event (%): Tooth extraction ([3]; Crossover (N = 10)): 0 | Patients experiencing event (%): Toothache ([3]; Crossover (N = 10)): 0 | Patients experiencing event (%): Vision blurred ([3]; Crossover (N = 10)): 1 (10.0) | Patients experiencing event (%): Visual field defect ([3]; Crossover (N = 10)): 1 (10.0) | Patients experiencing event (%): Visual impairment ([3]; Crossover (N = 10)): 0 | Patients experiencing event (%): Vitamin B12 deficiency ([3]; Crossover (N = 10)): 0 | Patients experiencing event (%): Vitamin D decreased ([3]; Crossover (N = 10)): 0 | Patients experiencing event (%): Vitreous floaters ([3]; Crossover (N = 10)): 1 (10.0) | Patients experiencing event (%): Vulvovaginal candidiasis ([3]; Crossover (N = 10)): 0 | Patients experiencing event (%): Wrist fracture ([3]; Crossover (N = 10)): 0 | Patients experiencing event (%): Xanthelasma ([3]; Crossover (N = 10)): 0 | association between treatment groups and frequency of adverse events ([3]; in vivo): no association was observed | changes by physical examination, electrocardiogram, vital signs, hematology, biochemistry and lipid panels ([3]; in vivo): no changes were attributed to gildeuretinol acetate
